Here are results for 25 compounds from patent US20060035920A1, “Chk-1 inhibitors” (Millennium Pharmaceuticals, Inc., priority 2004, published 2006).

The assay concerns the target T1, Recombinant human Chk1 (GST-Chk1) (Homo sapiens, UniProt O14757).
T1 construct: made in house; host or cells: insect cells (baculovirus, Bac-to-Bac system)
T1 sequence (O14757 1-476): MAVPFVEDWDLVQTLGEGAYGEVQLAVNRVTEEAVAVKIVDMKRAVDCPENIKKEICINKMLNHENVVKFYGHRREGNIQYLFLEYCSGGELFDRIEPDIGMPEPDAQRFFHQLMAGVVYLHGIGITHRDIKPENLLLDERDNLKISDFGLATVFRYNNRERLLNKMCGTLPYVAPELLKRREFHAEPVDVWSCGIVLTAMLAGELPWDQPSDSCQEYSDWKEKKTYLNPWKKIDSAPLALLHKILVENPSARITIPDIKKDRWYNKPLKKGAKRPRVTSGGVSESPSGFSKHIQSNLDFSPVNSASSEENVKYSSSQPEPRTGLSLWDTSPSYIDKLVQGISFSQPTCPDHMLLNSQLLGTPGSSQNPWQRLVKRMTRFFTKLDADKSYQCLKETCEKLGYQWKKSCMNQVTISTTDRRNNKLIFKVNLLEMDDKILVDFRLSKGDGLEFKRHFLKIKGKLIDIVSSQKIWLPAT
In words: Chk1 DELFIA Kinase Assay. In kind it is biochemical. On the procedure:
Recombinant human Chk1 was expressed as a fusion protein with glutathione S-transferase at the amino-terminus (GST-Chk1) using standard baculovirus vectors and (Bac-to-Bac®) insect cell expression system purchased from GIBCO™ Invitrogen. Recombinant protein expressed in insect cells was purified using glutathione sepharose (Amersham Biotech) using standard procedures described by the manufacturer.
Chk1 DELFIA® Kinase Assay:
Assays (25 μL) utilized 2 nM GST-Chk1 containing 10 mM Tris, pH 7.5, 20% glycerol, 50 mM sodium chloride (NaCl), 0.01% Surfact-Amps® 20, 1 μM peptide stubstrate (Biotin-GLYRSPSMPEN-amide) (SEQ ID NO: 2), 01.% BSA, 2 mM DTT, 4% DMSO, 600 μM ATP, 10 mM MgCl2 and reacted for 50 minutes at room temperature. Reactions were terminated with 100 μL of Stop buffer containing 1% BSA, 10 mM Tris, pH 8.0, 150 mM NaCl, 100 mM EDTA. Stopped reactions (100 μL) were transferred to 96 well NeutrAvidin plates (Pierce) to capture the biotin-peptide substrate during a 30 minute room temperature incubation. Wells were washed and reacted with 100 μL PerkinElmer Wallac Assay Buffer containing 21.5 ng/ml anti-phospho-Ser216-Cdc25c rabbit polyclonal antibody from Cell Signaling Technology (Beverly, Mass.) and 292 ng/ml europium labeled anti-rabbit-IgG for 1 hour at room temperature. Wells were washed and europium released from the bound antibody by addition of Enhancement Solution (100 μL) (PerkinElmer Wallac) and detected using a Perkin Elmer Wallac Envison™ 2100 multilabel reader using standard manufacturer settings.

Where [1] appears, read: GST-Chk1 in vitro kinase assay, bound given in μM.
[2] abbreviates: GST-Chk1 kinase assay, bound given in nM.

With `CCn1c(=O)c2c(C)[nH]nc2c2cc(CCCN3CCCC3)ccc21` [Compound I-54, 5-ethyl-3-methyl-8-(3-pyrrolidin-1-ylpropyl)-2,5-dihydro-4H-pyrazolo[4,3-c]quinolin-4-one], the IC50 was < 1 µM under setting [1] and > 0.5 µM under setting [2].

For the compound `CCN(CC)C/C=C/c1ccc2c(c1)c1n[nH]c(C)c1c(=O)n2CC` [Compound I-43, 8-[(1E)-3-(diethylamino)prop-1-en-1-yl]-5-ethyl-3-methyl-2,5-dihydro-4H-pyrazolo[4,3-c]quinolin-4-one], the IC50 under setting [2] was < 0.5 µM. On the same count and under the same terms, then `CCn1c(=O)c2c(C)[nH]nc2c2cc(-c3ccc(CN(C)C)s3)ccc21` [Compound I-50, 8-{5-[(dimethylamino)methyl]-2-thienyl}-5-ethyl-3-methyl-2,5-dihydro-4H-pyrazolo[4,3-c]quinolin-4-one], with < 0.5 µM.

Take `CCn1c(=O)c2c(C)[nH]nc2c2cc(/C=C/CN3[C@H](C)CC[C@@H]3C)ccc21` [Compound I-41, 8-{(1E)-3-[(2R,5S)-2,5-dimethylpyrrolidin-1-yl]prop-1-en-1-yl}-5-ethyl-3-methyl-2,5-dihydro-4H-pyrazolo[4,3-c]quinolin-4-one]: the IC50 under setting [2] is < 0.5 µM.

Take `Cc1[nH]nc2c1c(=O)n(C)c1ccc(C#CCO)cc21` [Compound I-24, 8-(3-hydroxyprop-1-yn-1-yl)-3,5-dimethyl-2,5-dihydro-4H-pyrazolo[4,3-c]quinolin-4-one]: the IC50 under setting [2] was < 0.5 µM.

In the case of `CCn1c(=O)c2c(C)[nH]nc2c2cc(C#CCN3CCC3)ccc21` [Compound I-31, 8-(3-azetidin-1-ylprop-1-yn-1-yl)-5-ethyl-3-methyl-2,5-dihydro-4H-pyrazolo[4,3-c]quinolin-4-one], the IC50 under setting [2] is < 0.5 µM. On the same count and under the same terms, then `Cc1[nH]nc2c1c(=O)n(CC(F)(F)F)c1ccc(C#CCN3CCCC3)cc21` [Compound I-20, 3-methyl-8-(3-pyrrolidin-1-ylprop-1-yn-1-yl)-5-(2,2,2-trifluoroethyl)-2,5-dihydro-4H-pyrazolo[4,3-c]quinolin-4-one], with < 0.5 µM. With `CCn1c(=O)c2c(C)[nH]nc2c2cc(-c3ccc(CN4CCCC4)s3)ccc21` [Compound I-53, 5-ethyl-3-methyl-8-[5-(pyrrolidin-1-ylmethyl)-2-thienyl]-2,5-dihydro-4H-pyrazolo[4,3-c]quinolin-4-one], the IC50 under setting [2] was < 0.5 µM. As for `CCn1c(=O)c2c(C)[nH]nc2c2cc(-c3ccc(CN4CCCC4)o3)ccc21` [Compound I-55, 5-ethyl-3-methyl-8-[5-(pyrrolidin-1-ylmethyl)-2-furyl]-2,5-dihydro-4H-pyrazolo[4,3-c]quinolin-4-one], under setting [2], the IC50 was < 0.5 µM.

In the case of `CCn1c(=O)c2c(CCOC)[nH]nc2c2cc(C#CCN3CCCC3)ccc21` [Compound I-14, 5-ethyl-3-(2-methoxyethyl)-8-(3-pyrrolidin-1-ylprop-1-yn-1-yl)-2,5-dihydro-4H-pyrazolo[4,3-c]quinolin-4-one], under setting [2], the IC50 was < 0.5 µM. For `CCn1c(=O)c2c(C)[nH]nc2c2cc(C#CCN3CCC(F)(F)C3)ccc21` [Compound I-30, 8-[3-(3,3-difluoropyrrolidin-1-yl)prop-1-yn-1-yl]-5-ethyl-3-methyl-2,5-dihydro-4H-pyrazolo[4,3-c]quinolin-4-one], the IC50 under setting [2] was < 0.5 µM. In the case of `CCCn1c(=O)c2c(C)[nH]nc2c2cc(-c3ccc(CN(C)C)s3)ccc21` [Compound I-56, 8-{5-[(dimethylamino)methyl]-2-thienyl}-3-methyl-5-propyl-2,5-dihydro-4H-pyrazolo[4,3-c]quinolin-4-one], the 50% inhibitory concentration (IC50) under setting [2] is < 0.5 µM. On the same count and under the same terms, then `Cc1[nH]nc2c1c(=O)n(CCO)c1ccc(C#CCN3CCCC3)cc21` [Compound I-17, 5-(2-hydroxyethyl)-3-methyl-8-(3-pyrrolidin-1-ylprop-1-yn-1-yl)-2,5-dihydro-4H-pyrazolo[4,3-c]quinolin-4-one], with < 0.5 µM; and `CCN(CC)Cc1ccc(-c2ccc3c(c2)c2n[nH]c(C)c2c(=O)n3CC)s1` [Compound I-46, 8-{5-[(diethylamino)methyl]-2-thienyl}-5-ethyl-3-methyl-2,5-dihydro-4H-pyrazolo[4,3-c]quinolin-4-one], with < 0.5 µM. As for `CCn1c(=O)c2c(C)[nH]nc2c2ccc(CCCN3CCCC3)cc21` [Compound I-42, 5-ethyl-3-methyl-7-(3-pyrrolidin-1-ylpropyl)-2,5-dihydro-4H-pyrazolo[4,3-c]quinolin-4-one], the IC50 under setting [1] is < 1 µM and the IC50 under setting [2] was > 0.5 µM. Take `Cc1[nH]nc2c1c(=O)n(C)c1ccc(C#CCN)cc21` [Compound I-23, 8-(3-aminoprop-1-yn-1-yl)-3,5-dimethyl-2,5-dihydro-4H-pyrazolo[4,3-c]quinolin-4-one]: the IC50 under setting [2] is < 0.5 µM. For `CCn1c(=O)c2c(C)[nH]nc2c2cc(C#CCN3[C@H](C)CC[C@@H]3C)ccc21` [Compound I-3, 8-{3-[(2R,5S)-2,5-dimethylpyrrolidin-1-yl]prop-1-yn-1-yl}-5-ethyl-3-methyl-2,5-dihydro-4H-pyrazolo[4,3-c]quinolin-4-one], under setting [2], the IC50 was < 0.5 µM. With `Cc1[nH]nc2c1c(=O)n(CC(F)F)c1ccc(C#CCN3CCCC3)cc21` [Compound I-4, 5-(2,2-difluoroethyl)-3-methyl-8-(3-pyrrolidin-1-ylprop-1-yn-1-yl)-2,5-dihydro-4H-pyrazolo[4,3-c]quinolin-4-one], under setting [2], the IC50 was < 0.5 µM. Turning to `CCn1c(=O)c2c(C)[nH]nc2c2cc(C#CCN3CCN(C)CC3)ccc21` [Compound I-8, 5-ethyl-3-methyl-8-[3-(4-methylpiperazin-1-yl)prop-1-yn-1-yl]-2,5-dihydro-4H-pyrazolo[4,3-c]quinolin-4-one], the IC50 under setting [2] was < 0.5 µM. `CCn1c(=O)c2c(C)[nH]nc2c2cc(-c3cn[nH]c3)ccc21` [Compound I-52, 5-ethyl-3-methyl-8-(1H-pyrazol-4-yl)-2,5-dihydro-4H-pyrazolo[4,3-c]quinolin-4-one]: the IC50 is < 1 µM under setting [1] and > 0.5 µM under setting [2]. On to `Cc1[nH]nc2c1c(=O)n(CC(C)C)c1ccc(C#CCN3CCCC3)cc21` [Compound I-16, 5-isobutyl-3-methyl-8-(3-pyrrolidin-1-ylprop-1-yn-1-yl)-2,5-dihydro-4H-pyrazolo[4,3-c]quinolin-4-one], for which the IC50 under setting [2] was < 0.5 µM. Still for that read-out and setting: with `Cc1[nH]nc2c1c(=O)[nH]c1ccc(C#CCN3CCCC3)cc12` [Compound I-13, 3-methyl-8-(3-pyrrolidin-1-ylprop-1-yn-1-yl)-2,5-dihydro-4H-pyrazolo[4,3-c]quinolin-4-one] the figure was < 0.5 µM. Consider `CCCn1c(=O)c2c(C)[nH]nc2c2cc(C#CCN3CCCC3)ccc21` [Compound I-19, 3-methyl-5-propyl-8-(3-pyrrolidin-1-ylprop-1-yn-1-yl)-2,5-dihydro-4H-pyrazolo[4,3-c]quinolin-4-one], for which the half-inhibitory concentration (IC50) under setting [2] was < 0.5 µM. The same measure, in the same setting: then `Cc1[nH]nc2c1c(=O)n(CCF)c1ccc(C#CCN3CCCC3)cc21` [Compound I-10, 5-(2-fluoroethyl)-3-methyl-8-(3-pyrrolidin-1-ylprop-1-yn-1-yl)-2,5-dihydro-4H-pyrazolo[4,3-c]quinolin-4-one], with < 0.5 µM; and `Cc1[nH]nc2c1c(=O)n(CCCO)c1ccc(C#CCN3CCCC3)cc21` [Compound I-18, 5-(3-hydroxypropyl)-3-methyl-8-(3-pyrrolidin-1-ylprop-1-yn-1-yl)-2,5-dihydro-4H-pyrazolo[4,3-c]quinolin-4-one], with < 0.5 µM.

What is called IC50 is the concentration that inhibits the measured activity by half.
